The supplement of paper PMC10307832

Columns and labels:
Test in all cases: relative viability (nuclei count vs DMSO), 5 days (fraction); higher = more cells survive
Crenolanib + Trametinib = compound: CC1(COc2ccc3c(c2)ncn3-c2ccc3cccc(N4CCC(N)CC4)c3n2)COC1 [Crenolanib] + CC(=O)Nc1cccc(-n2c(=O)n(C3CC3)c(=O)c3c(Nc4ccc(I)cc4F)n(C)c(=O)c(C)c32)c1 [Trametinib] (partner 0.02 µM)
Summary of the method: (§1)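 Lung cancer cell lines were seeded in 1536-well plates and dosed by pin tool the next day, with either a single drug or a fixed anchor-drug dose combined with five library-drug doses (not always all listed) spaced in √10 steps. Five days later, one step fixed the cells and stained their nuclei (final 0.05% Triton X-100, 1% formaldehyde, 1 ug/ml Hoechst), and nuclei were counted on 4× images. Relative viability is the nuclei count in treated wells divided by the count in vehicle wells, and each value is the median of duplicate plates.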

Crenolanib + Alpelisib = compound: CC1(COc2ccc3c(c2)ncn3-c2ccc3cccc(N4CCC(N)CC4)c3n2)COC1 [Crenolanib] + Cc1nc(NC(=O)N2CCC[C@H]2C(N)=O)sc1-c1ccnc(C(C)(C)C(F)(F)F)c1 [Alpelisib] (partner 2 µM)
Summary of the method: as §1

Crenolanib + Phenformin = compound: CC1(COc2ccc3c(c2)ncn3-c2ccc3cccc(N4CCC(N)CC4)c3n2)COC1 [Crenolanib] + N=C(N)NC(=N)NCCc1ccccc1 [Phenformin] (partner 250 µM)
Summary of the method: as §1

Tivantinib + Vorinostat = compound: O=C1NC(=O)[C@@H](c2cn3c4c(cccc24)CCC3)[C@@H]1c1c[nH]c2ccccc12 [Tivantinib] + O=C(CCCCCCC(=O)Nc1ccccc1)NO [Vorinostat] (partner 1 µM)
Summary of the method: as §1

Row | Cell Line | relative viability (Crenolanib + Trametinib; first compound 0.01 µM) | relative viability (Crenolanib + Trametinib; first compound 0.03162 µM) | relative viability (Crenolanib + Trametinib; first compound 0.1 µM) | relative viability (Crenolanib + Trametinib; first compound 0.3162 µM) | relative viability (Crenolanib + Trametinib; first compound 1 µM) | relative viability (Crenolanib + Alpelisib; first compound 0.01 µM) | relative viability (Crenolanib + Alpelisib; first compound 0.03162 µM) | relative viability (Crenolanib + Alpelisib; first compound 0.1 µM) | relative viability (Crenolanib + Alpelisib; first compound 0.3162 µM) | relative viability (Crenolanib + Alpelisib; first compound 1 µM) | relative viability (Crenolanib + Phenformin; first compound 0.01 µM) | relative viability (Crenolanib + Phenformin; first compound 0.03162 µM) | relative viability (Crenolanib + Phenformin; first compound 0.1 µM) | relative viability (Crenolanib + Phenformin; first compound 0.3162 µM) | relative viability (Crenolanib + Phenformin; first compound 1 µM) | relative viability (Tivantinib + Vorinostat; first compound 0.01 µM) | relative viability (Tivantinib + Vorinostat; first compound 0.03162 µM) | relative viability (Tivantinib + Vorinostat; first compound 0.1 µM) | relative viability (Tivantinib + Vorinostat; first compound 0.3162 µM)
1 | NCI-H358 | 0.169 | 0.11 | 0.166 | 0.133 | 0.112 | 0.897 | 1.01 | 0.756 | 0.991 | 0.605 | 0.372 | 0.321 | 0.3 | 0.292 | 0.239 | 0.704 | 0.567 | 0.658 | 0.233
2 | NCI-H441 | 0.537 | 0.479 | 0.425 | 0.485 | 0.408 | 0.708 | – | 0.888 | 0.732 | 0.792 | 0.771 | 0.881 | 0.955 | 0.936 | 0.633 | 0.844 | 0.762 | 0.563 | 0.708
3 | NCI-H460 | 0.13 | 0.169 | 0.151 | 0.17 | 0.133 | 0.571 | 0.54 | 0.41 | 0.709 | 0.265 | 0.549 | 0.514 | 0.518 | 0.506 | 0.473 | 0.665 | 0.67 | 0.71 | 0.404
4 | NCI-H520 | 0.818 | 0.714 | 0.644 | 0.678 | 0.686 | 0.868 | 0.878 | 0.863 | 0.99 | 0.848 | 0.605 | 0.574 | 0.75 | 0.584 | 0.616 | 0.672 | 0.672 | 0.694 | 0.703
5 | NCI-H596 | 0.823 | 0.842 | 0.753 | 0.729 | 0.75 | 0.435 | 0.531 | 0.494 | 0.478 | 0.536 | 0.691 | 0.806 | 0.72 | 0.733 | 0.737 | 0.687 | 0.589 | 0.636 | 0.531
6 | NCI-H647 | 0.55 | 0.442 | 0.486 | 0.653 | 0.538 | 1.16 | 1.28 | 1.04 | 1.21 | 1.11 | 0.546 | 0.612 | 0.551 | 0.463 | 0.481 | 0.541 | 0.598 | 0.579 | 0.962
7 | NCI-H650 | 1.01 | 1.01 | 0.976 | 1.05 | 0.992 | 1.14 | 1.13 | 0.972 | 1.06 | 1.07 | 0.468 | 0.405 | 0.48 | 0.445 | 0.445 | 0.45 | 0.356 | 0.443 | 0.4
8 | NCI-H661 | 0.57 | 0.55 | 0.528 | 0.603 | 0.494 | 0.894 | 0.609 | 0.479 | 0.597 | 0.542 | 0.284 | 0.275 | 0.289 | 0.283 | 0.289 | 0.849 | 0.792 | 0.752 | 0.659
9 | NCI-H727 | 0.437 | 0.387 | 0.359 | 0.382 | 0.447 | 0.609 | 0.671 | 0.563 | 0.665 | 0.627 | 0.636 | 0.544 | 0.497 | 0.565 | 0.599 | 1.11 | 1.22 | 1.35 | –
